# Source: patent US8513303B2, “Antimicrobial agent” (De Montfort University, priority 2007, dated 2013)
# Legend:
# [1] = tested on: Staphylococcus aureus ATCC 6538; experiment: Quantitative suspension test, log10 reduction in bacterial numbers; assay type: cell-based; settings: 1% w/v H2O2
# Text: (§1) Neutralisation (nullification of activity) of antimicrobial agents is required to prevent inhibitory concentrations from being transferred to the recovery medium (as discussed, for example, in Russell A. D. (2004) Factors influencing the efficacy of antimicrobial agents in Principles and Practice of Disinfection Preservation and Sterilization, 4th edition, eds Fraise A. P., Lambert P. A. and Maillard J. Y., pages 98-127, Oxford: Blackwell Publishing Ltd. and Russell A. D., Ahonkhai I. and Rogers, D. T. (1979) A review: microbiological applications of the inactivation of antibiotics and other antimicrobial agents. Journal of Applied Bacteriology, 46, 207-245). Thus, samples were removed at desired time points and then any hydrogen peroxide present in the sample was neutralised (i.e. deactivated) using catalase.
# (§2) In the examples, catalase from bovine liver was used to neutralise the activity of any remaining hydrogen peroxide (as described in Russell A. D., Ahonkhai I. and Rogers, D. T. (1979), A review: microbiological applications of the inactivation of antibiotics and other antimicrobial agents, Journal of Applied Bacteriology, 46, 207-245) after the appropriate contact time during the experiments. Control experiments were conducted to establish whether the neutraliser nullified the activity of hydrogen peroxide and whether the neutraliser was toxic to the micro-organisms tested.
# (§3) The effect of acidic pH conditions (pH 3.47 to 3.54) were investigated with and without hydrogen peroxide and air.
# (§4) A quantitative suspension test (as described in Reybrouck G. (1998), The testing of disinfectants, International Biodeterioration and Biodegradation, 41, 269-272) based on the general principles of European quantitative suspension tests (BS EN1040:2005: Chemical disinfectants and antiseptics, Quantitative suspension test for the evaluation of basic bactericidal activity of chemical disinfectants and antiseptics, Test method and requirements (phase 1), London: British Standards Institute; BS EN 1276:1997: Chemical disinfectants and antiseptics, Quantitative suspension test for the evaluation of bactericidal activity of chemical disinfectants and antiseptics used in food, industrial, domestic, and institutional areas, Test method and requirements (phase 2, step 1). London: British Standards Institute) was used to establish the basic level of activity of the catalyst in the absence of organic matter. All tests were performed independently at least three times unless otherwise stated. Low concentrations (0.2-1% w/v) of hydrogen peroxide were used so that increases in antimicrobial activity could be detected if present.
# (§5) Bacteria were inoculated into 10 ml volumes of nutrient broth and incubated at 37° C. for 18 to 24 hours at a shaking speed of 100 revolutions/minute. After incubation, the bacteria were washed by centrifugation to remove the nutrient broth; supernatants were discarded and the bacterial pellets were resuspended in sterilised distilled water. 7.5 ml of the washed bacterial suspension was added to 67.5 ml of hydrogen peroxide and/or distilled water to give a specific final concentration (ranging from 0 to 1% w/v—see Tables below) of hydrogen peroxide and approximately 8 log10 colony forming units (CFU)/mL of bacteria. The resultant mixture was stirred magnetically throughout the experiment. Where applicable, 1 g (+/−0.1 g) of either modified PAN fibre (referred to as PAN1 (control) or PAN2 (control)) or catalyst (referred to as PAN1 catalyst or PAN2 catalyst or PAN3 catalyst) comprising PAN fibres was added to the resultant mixture. The experiments were performed with or without air. If air was used, 2.5 L/min was supplied via. a filtered air pump and a sterilised Pyrex gas distribution tube.
# (§6) After a specific contact time (see Tables below), 1 ml aliquots were removed from the experimental flask and transferred into 9 ml of neutraliser (catalase) for 5 minutes to inactivate any remaining hydrogen peroxide.
# [2] = tested on: Escherichia coli ATCC 10536; experiment: as above; assay type: cell-based; settings: 0.2% w/v H2O2
# Text: as §1, §2, §3, §4, §5, §6
# [3] = air 2.5 L/min, 50 min, listed as hydrogen peroxide
# [4] = no air, 60 min, listed as hydrogen peroxide
# [5] = acidic pH 3.47 to 3.54, air 2.5 L/min, 10 min
# [6] = acidic pH 3.47 to 3.54, air 2.5 L/min, 20 min
# [7] = acidic pH 3.47 to 3.54, air 2.5 L/min, 30 min
# [8] = acidic pH 3.47 to 3.54, air 2.5 L/min, 40 min
# [9] = acidic pH 3.47 to 3.54, air 2.5 L/min, 50 min
# [10] = acidic pH 3.47 to 3.54, air 2.5 L/min, 60 min
# [11] = acidic pH 3.47 to 3.54, no air, 10 min
# [12] = acidic pH 3.47 to 3.54, no air, 20 min
# [13] = acidic pH 3.47 to 3.54, no air, 30 min
# [14] = acidic pH 3.47 to 3.54, no air, 40 min
# [15] = acidic pH 3.47 to 3.54, no air, 50 min
# [16] = acidic pH 3.47 to 3.54, no air, 60 min
compound,measurement,setting,value
"OO [Example H2O2, hydrogen peroxide]",Mean log10 reduction in CFU/ml,"[1]; air 2.5 L/min, 10 min",0.61 log10 CFU/ml
same,Mean log10 reduction in CFU/ml,"[1]; air 2.5 L/min, 20 min",1.27 log10 CFU/ml
same,Mean log10 reduction in CFU/ml,"[1]; air 2.5 L/min, 30 min",2.57 log10 CFU/ml
same,Mean log10 reduction in CFU/ml,"[1]; air 2.5 L/min, 40 min",3.84 log10 CFU/ml
same,Mean log10 reduction in CFU/ml,"[1]; air 2.5 L/min, 50 min",5.07 log10 CFU/ml
same,Mean log10 reduction in CFU/ml,[1]; [3],5 log10 CFU/ml
same,Mean log10 reduction in CFU/ml,"[1]; air 2.5 L/min, 60 min",5.40 log10 CFU/ml
same,Mean log10 reduction in CFU/ml,"[1]; no air, 10 min",0.70 log10 CFU/ml
same,Mean log10 reduction in CFU/ml,"[1]; no air, 20 min",1.43 log10 CFU/ml
same,Mean log10 reduction in CFU/ml,"[1]; no air, 30 min",2.88 log10 CFU/ml
same,Mean log10 reduction in CFU/ml,"[1]; no air, 40 min",3.89 log10 CFU/ml
same,Mean log10 reduction in CFU/ml,"[1]; no air, 50 min",4.97 log10 CFU/ml
same,Mean log10 reduction in CFU/ml,"[1]; no air, 60 min",5.37 log10 CFU/ml
same,Mean log10 reduction in CFU/ml,[1]; [4],5 log10 CFU/ml
same,Mean log10 reduction in CFU/ml,[1]; [5],1.00 log10 CFU/ml
same,Mean log10 reduction in CFU/ml,[1]; [6],1.86 log10 CFU/ml
same,Mean log10 reduction in CFU/ml,[1]; [7],2.33 log10 CFU/ml
same,Mean log10 reduction in CFU/ml,[1]; [8],2.83 log10 CFU/ml
same,Mean log10 reduction in CFU/ml,[1]; [9],2.23 log10 CFU/ml
same,Mean log10 reduction in CFU/ml,[1]; [10],3.45 log10 CFU/ml
same,Mean log10 reduction in CFU/ml,[1]; [11],0.69 log10 CFU/ml
same,Mean log10 reduction in CFU/ml,[1]; [12],0.72 log10 CFU/ml
same,Mean log10 reduction in CFU/ml,[1]; [13],1.30 log10 CFU/ml
same,Mean log10 reduction in CFU/ml,[1]; [14],2.03 log10 CFU/ml
same,Mean log10 reduction in CFU/ml,[1]; [15],2.90 log10 CFU/ml
same,Mean log10 reduction in CFU/ml,[1]; [16],3.23 log10 CFU/ml
same,Mean log10 reduction in CFU/ml,"[1]; room temperature, no air, no catalyst, 10 min",0.43 log10 CFU/ml
same,Mean log10 reduction in CFU/ml,"[1]; room temperature, no air, no catalyst, 20 min",1.21 log10 CFU/ml
same,Mean log10 reduction in CFU/ml,"[1]; room temperature, no air, no catalyst, 30 min",2.25 log10 CFU/ml
same,Mean log10 reduction in CFU/ml,"[1]; room temperature, no air, no catalyst, 40 min",3.92 log10 CFU/ml
same,Mean log10 reduction in CFU/ml,"[1]; room temperature, no air, no catalyst, 50 min",4.57 log10 CFU/ml
same,Mean log10 reduction in CFU/ml,"[1]; room temperature, no air, no catalyst, 60 min",5.10 log10 CFU/ml
same,Mean log10 reduction in CFU/ml,"[2]; air 2.5 L/min, 10 min",1.33 (0.27) log10 CFU/ml
same,Mean log10 reduction in CFU/ml,"[2]; air 2.5 L/min, 20 min",2.68 (0.22) log10 CFU/ml
same,Mean log10 reduction in CFU/ml,"[2]; air 2.5 L/min, 30 min",3.98 (0.28) log10 CFU/ml
same,Mean log10 reduction in CFU/ml,"[2]; air 2.5 L/min, 40 min",4.79 (0.43) log10 CFU/ml
same,Mean log10 reduction in CFU/ml,"[2]; air 2.5 L/min, 50 min",>5.58 (0) log10 CFU/ml
same,Mean log10 reduction in CFU/ml,[2]; [3],greater than 5 log10 CFU/ml
same,Mean log10 reduction in CFU/ml,"[2]; air 2.5 L/min, 60 min",>5.58 (0) log10 CFU/ml
same,Mean log10 reduction in CFU/ml,"[2]; no air, 10 min",1.01 (0.36) log10 CFU/ml
same,Mean log10 reduction in CFU/ml,"[2]; no air, 20 min",2.20 (0.42) log10 CFU/ml
same,Mean log10 reduction in CFU/ml,"[2]; no air, 30 min",2.67 (0.52) log10 CFU/ml
same,Mean log10 reduction in CFU/ml,"[2]; no air, 40 min",3.52 (0.57) log10 CFU/ml
same,Mean log10 reduction in CFU/ml,"[2]; no air, 50 min",4.21 (0.19) log10 CFU/ml
same,Mean log10 reduction in CFU/ml,"[2]; no air, 60 min",4.76 (0.39) log10 CFU/ml
same,Mean log10 reduction in CFU/ml,[2]; [4],4.76 log10 CFU/ml
same,Mean log10 reduction in CFU/ml,[2]; [5],2.16 log10 CFU/ml
same,Mean log10 reduction in CFU/ml,[2]; [6],3.35 log10 CFU/ml
same,Mean log10 reduction in CFU/ml,[2]; [7],4.46 log10 CFU/ml
same,Mean log10 reduction in CFU/ml,[2]; [8],≧5.46 log10 CFU/ml
same,Mean log10 reduction in CFU/ml,"[2]; acidic pH 3.47 to 3.54, air 2.5 L/min, 40 min, listed as hydrogen peroxide",greater than 5 log10 CFU/ml
same,Mean log10 reduction in CFU/ml,[2]; [9],>5.46 log10 CFU/ml
same,Mean log10 reduction in CFU/ml,[2]; [10],>5.46 log10 CFU/ml
same,Mean log10 reduction in CFU/ml,[2]; [11],2.43 log10 CFU/ml
same,Mean log10 reduction in CFU/ml,[2]; [12],3.40 log10 CFU/ml
same,Mean log10 reduction in CFU/ml,[2]; [13],4.21 log10 CFU/ml
same,Mean log10 reduction in CFU/ml,[2]; [14],≧5.11 log10 CFU/ml
same,Mean log10 reduction in CFU/ml,"[2]; acidic pH 3.47 to 3.54, no air, 40 min, listed as hydrogen peroxide",greater than 5 log10 CFU/ml
same,Mean log10 reduction in CFU/ml,[2]; [15],≧5.30 log10 CFU/ml
same,Mean log10 reduction in CFU/ml,[2]; [16],>5.46 log10 CFU/ml
